# Where two headings read alike, the source gives them in different places. Bridge positions count the residues as written; N and C are the ends. Square brackets hold non-standard residues; d marks the D form. Peptide text beside a SMILES is read from it. * marks the point of attachment. ξ: configuration not given here. Phe(4-NO2) = N[C@@H](Cc1ccc([N+](=O)[O-])cc1)C(=O)O; dPhe(4-NHCONH2) = NC(=O)Nc1ccc(C[C@@H](N)C(=O)O)cc1; Phe(4-Cl) = N[C@@H](Cc1ccc(Cl)cc1)C(=O)O; ξDihydroorotoyl = O=C1CC(C(=O)*)NC(=O)N1; 2Nal = N[C@@H](Cc1ccc2ccccc2c1)C(=O)O; ξPhe(4-NH2) = Nc1ccc(CC(N)C(=O)O)cc1
# How the values were obtained:
# sst2 = sst2 (Homo sapiens, UniProt P30874); assay: Calcium release assay in HEK-sst2 cells (Fluo-4NW); assay type: cell-based; set-up: expressed in transfected cells; host or cells: HEK293 (HEK-sst2); conditions: n ≧ 2
# sst2, sequence (P30874 whole entry): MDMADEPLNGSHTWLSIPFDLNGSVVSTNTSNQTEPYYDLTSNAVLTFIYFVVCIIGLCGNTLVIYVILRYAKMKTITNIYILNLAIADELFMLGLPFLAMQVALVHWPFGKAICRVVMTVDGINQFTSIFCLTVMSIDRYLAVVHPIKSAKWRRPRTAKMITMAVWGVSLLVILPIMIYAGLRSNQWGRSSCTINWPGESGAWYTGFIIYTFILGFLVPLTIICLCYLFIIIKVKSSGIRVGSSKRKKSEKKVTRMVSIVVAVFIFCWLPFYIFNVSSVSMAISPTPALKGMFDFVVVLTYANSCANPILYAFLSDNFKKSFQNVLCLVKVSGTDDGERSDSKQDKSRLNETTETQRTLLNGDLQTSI
# Experimental: Calcium release assay. Intracellular calcium release was measured in HEK-sst2 using the Fluo-4NW Calcium Assay kit as described previously (Magrys, et al. “The role of anti-alpha-enolase autoantibodies in pathogenicity of autoimmune-mediated retinopathy.” J. Clin. Immunol. 2007, 27, 181-192; Michel et al. “The Nef protein of human immunodeficiency virus is a broad-spectrum modulator of chemokine receptor cell surface levels that acts independently of classical motifs for receptor endocytosis and Galphai signaling.” Mol. Biol. Cell. 2006, 17, 3578-3590). In brief, HEK-sst2 cells were seeded (25,000 cells per well) in poly-D-lysine (20 μg/mL) coated 96 well plates and cultured for 1 day at 37° C. and 5% CO2 in culture medium. At the day of the experiment, the cells were washed with assay buffer (1×HBSS, 20 mM HEPES) containing 2.5 mM probenecid, and then loaded with 100 μL/well Fluo-4NW dye in assay buffer containing 2.5 mM probenecid for 30 min at 37° C. and 5% CO2 and then for further 30 min at room temperature. To measure the intracellular calcium mobilization after stimulation with the SRIF analogues to be tested, the dye-loaded cells were transferred to a SpectraMax M2^e (Molecular Devices, Sunnyvale, Calif.). Intracellular calcium mobilization was recorded in a kinetic for 60 sec at room temperature monitoring fluorescence emission at 520 nm (with λex=485 nm) in the presence of the analogues at the concentrations indicated. Maximum fluorescence (Fmax) was measured after the addition of 25 μM ionomycin. Baseline (control) measurements were taken for dye-loaded, untreated cells. Data are shown as percentage of Fmax (% Fmax) as reported previously. (Magrys, et al. J. Clin. Immunol. 2007, 27, 181-192; Michel et al. Mol. Biol. Cell. 2006, 17, 3578-3590). All experiments were repeated at least three times in triplicate.
# hSSTR5 = biological target: T1, hSSTR5 (Homo sapiens, UniProt P35346); assay: Receptor autoradiography, displacement of 125I-[Leu8,D-Trp22,Tyr25]-SRIF-28 from membrane pellet sections; assay type: binding
# T1 construct: expressed in transfected cells; host or cells: CHO-K1 or CCL39 cells
# T1 sequence (P35346 whole entry): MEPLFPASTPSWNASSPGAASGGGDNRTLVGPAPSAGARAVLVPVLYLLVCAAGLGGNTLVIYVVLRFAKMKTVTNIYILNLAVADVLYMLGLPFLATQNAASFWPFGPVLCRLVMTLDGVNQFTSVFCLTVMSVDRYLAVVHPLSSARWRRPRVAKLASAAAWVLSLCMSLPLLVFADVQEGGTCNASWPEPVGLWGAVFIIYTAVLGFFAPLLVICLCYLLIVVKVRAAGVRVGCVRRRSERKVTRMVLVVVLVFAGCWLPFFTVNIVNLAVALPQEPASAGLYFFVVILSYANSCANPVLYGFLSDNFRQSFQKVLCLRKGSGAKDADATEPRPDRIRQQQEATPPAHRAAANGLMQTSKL
# Experimental: (§1) Generally, recombinant cells expressing the receptor are washed and homogenized to prepare a crude protein homogenate in a suitable buffer. In a typical assay, an amount of protein from the cell homogenate is placed into a small volume of an appropriate assay buffer at an appropriate pH. Candidate substances, such as potential SRIF agonists and antagonists, are added to the admixture in convenient concentrations, and the interaction between the candidate substance and the receptor polypeptide is monitored.
# (§2) In vitro Bioassay: The effects of the various somatostatin analogs were tested in vitro for their ability to bind to isolated cloned receptors expressed on CHO-K1 cells and CCL39 cells. The molecular cloning of the genes encoding multiple somatostatin receptor subtypes permitted the individual expression of these receptors in mammalian cells and the characterization of their respective pharmacological profiles.
# (§3) CHO-K1 cells were grown in Ham's F-12 medium, and CCL39 cells were grown in Dulbecco's modified Eagle's medium/Ham's F-12(1:1) mix, supplemented with 10% fetal bovine serum, 100 U/ml penicillin and 100 μg/ml streptomycin, in humidified air containing 5% CO2 at 37° C. Cells were washed twice with and scraped into ice-cold 0.05 M Tris-HCl (pH 7.4), collected by centrifugation, and homogenized using a rotor/stator/system in the same buffer. After centrifugation at 120 g for 5 min at 4° C., the supernatant was collected and centrifuged again at 48,000 g for 30 min at 4° C. The resulting pellet was resuspended in ice-cold Tris buffer, transferred into a microfuge tube, and centrifuged at 20,000 g for 15 min at 4° C. After withdrawal of the supernatant, the membrane pellet was stored at −80° C.
# (§4) Receptor autoradiography was performed on 20 μm thick cryostat sections of the membrane pellets, mounted on microscope slides, and then stored at −20° C. […] Increasing concentrations of the unlabeled peptide were used ranging from 0.1-1000 nM. […] IC50 values were calculated after quantification of the data using a computer-assisted image processing system as known in this art.
# (§5) The numbers in parentheses indicate the number of times the particular binding test was carried out.
# (§6) Receptor autoradiography. Cell membrane pellets were prepared as previously described, and stored at −80° C. Receptor autoradiography was performed on 20-μm thick cryostat (Microm HM 500, Walldorf, Germany) sections of the membrane pellets, mounted on microscope slides, and then stored at −20° C. […] After a brief dip in distilled water to remove excess salts, the sections were dried quickly and exposed for 1 week to Kodak BioMax MR film. IC50 values were calculated after quantification of the data using a computer-assisted image processing system as described previously. […] (Reubi, J. C. “In vitro identification of vasoactive intestinal peptide receptors in human tumors: Implications for tumor imaging.” J. Nucl. Med. 1995, 36, 1846-1853).
# (§7) To investigate their ssts binding properties, the peptides were tested for their ability to bind to cryostat sections from membrane pellets of cells expressing the five human ssts (Table 3).
# hSSTR4 = biological target: T2, hSSTR4 (Homo sapiens, UniProt P31391); assay: as above; assay type: binding
# T2 construct: expressed in transfected cells; host or cells: CHO-K1 or CCL39 cells
# T2 sequence (P31391 whole entry): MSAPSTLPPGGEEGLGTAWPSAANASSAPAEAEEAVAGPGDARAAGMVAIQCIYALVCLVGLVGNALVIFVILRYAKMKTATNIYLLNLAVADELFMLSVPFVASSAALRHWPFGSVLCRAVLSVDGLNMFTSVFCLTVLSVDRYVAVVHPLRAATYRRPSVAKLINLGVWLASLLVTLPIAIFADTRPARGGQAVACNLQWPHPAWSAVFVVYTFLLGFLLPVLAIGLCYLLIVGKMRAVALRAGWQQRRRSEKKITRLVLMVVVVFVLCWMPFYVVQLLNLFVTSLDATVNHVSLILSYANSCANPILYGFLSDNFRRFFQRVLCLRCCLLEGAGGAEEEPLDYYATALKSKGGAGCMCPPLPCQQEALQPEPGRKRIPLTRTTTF
# Experimental: as §1, §2, §3, §4, §5, §6, §7
# hSSTR2 = biological target: T3, hSSTR2 (Homo sapiens, UniProt P30874); assay: as above; assay type: binding
# T3 construct: expressed in transfected cells; host or cells: CHO-K1 or CCL39 cells
# T3 sequence (P30874 whole entry): as the sequence (P30874 whole entry) above
# Experimental: as §1, §2, §3, §4, §5, §6, §7
# hSSTR3 = biological target: T4, hSSTR3 (Homo sapiens, UniProt P32745); assay: as above; assay type: binding
# T4 construct: expressed in transfected cells; host or cells: CHO-K1 or CCL39 cells
# T4 sequence (P32745 whole entry): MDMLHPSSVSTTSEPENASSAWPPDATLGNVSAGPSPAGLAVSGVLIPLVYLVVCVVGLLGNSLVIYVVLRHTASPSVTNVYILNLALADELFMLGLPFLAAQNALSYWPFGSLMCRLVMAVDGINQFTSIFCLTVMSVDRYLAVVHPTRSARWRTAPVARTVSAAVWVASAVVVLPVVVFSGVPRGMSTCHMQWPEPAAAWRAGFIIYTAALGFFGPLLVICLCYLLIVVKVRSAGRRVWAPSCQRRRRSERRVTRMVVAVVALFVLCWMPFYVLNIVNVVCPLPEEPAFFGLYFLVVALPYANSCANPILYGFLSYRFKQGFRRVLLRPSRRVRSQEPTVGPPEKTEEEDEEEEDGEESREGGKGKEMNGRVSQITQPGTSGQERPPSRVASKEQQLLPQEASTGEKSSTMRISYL
# Experimental: as §1, §2, §3, §4, §5, §6, §7
# hSSTR1 = biological target: T5, hSSTR1 (Homo sapiens, UniProt P30872); assay: as above; assay type: binding
# T5 construct: expressed in transfected cells; host or cells: CHO-K1 or CCL39 cells
# T5 sequence (P30872 whole entry): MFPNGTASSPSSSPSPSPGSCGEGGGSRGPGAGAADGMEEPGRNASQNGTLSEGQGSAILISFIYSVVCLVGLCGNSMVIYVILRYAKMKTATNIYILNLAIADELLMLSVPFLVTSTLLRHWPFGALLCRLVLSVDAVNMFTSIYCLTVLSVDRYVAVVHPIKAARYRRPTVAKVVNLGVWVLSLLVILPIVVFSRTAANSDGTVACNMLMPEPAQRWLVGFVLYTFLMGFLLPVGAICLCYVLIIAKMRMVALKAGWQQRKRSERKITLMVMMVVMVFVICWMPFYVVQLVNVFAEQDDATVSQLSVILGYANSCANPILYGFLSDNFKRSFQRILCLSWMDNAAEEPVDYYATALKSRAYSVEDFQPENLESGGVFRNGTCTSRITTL
# Experimental: as §1, §2, §3, §4, §5, §6, §7
# human sst2A receptor = biological target: T6, human sst2A receptor (Homo sapiens, UniProt P30874); assay: Immunofluorescence-based sst2 internalization assay in HEK-sst2 cells; assay type: cell-based; conditions: for sst2-internalization tested in vitro in HEK-sst2 cells (function): n ≧ 2
# T6 construct: expressed in transfected cells; host or cells: HEK293 (HEK-sst2)
# T6 sequence (P30874 whole entry): as the sequence (P30874 whole entry) above
# Experimental: Immunofluorescence-based sst2 Internalization Assay. Immunofluorescence microscopy-based internalization assay for sst2 was performed with HEK-sst2 using the sst2-specific antibody R2-88 as described elsewhere herein. HEK-sst2 cells were treated either with vehicle alone, the sst2 agonist [Tyr^3]-octreotide at a concentration of 100 nM, [Tyr^3]-octreotide at a concentration of 100 nM in the presence of an excess of the SRIF analogues to be tested (100 times the concentration of [Tyr^3]-octreotide), or with the SRIF analogues to be tested alone at a concentration of 10 μM, and then processed for immunofluorescence microscopy as described previously.
# [1] = Table 3, mean ± SEM when N ≧ 3, read-out: sst5 binding affinity (IC50)
# [2] = Table 3, mean ± SEM when N ≧ 3, read-out: sst4 binding affinity (IC50)
# [3] = Table 3, mean ± SEM when N ≧ 3, read-out: sst2 binding affinity (IC50)
# [4] = Table 3, mean ± SEM when N ≧ 3, read-out: sst3 binding affinity (IC50)
# [5] = Table 3, mean ± SEM when N ≧ 3, read-out: sst1 binding affinity (IC50)
compound,measurement,setting,value
"C[C@@H](O)[C@@H]1NC(=O)[C@H](CCCCN)NC(=O)[C@@H](Cc2c[nH]c3ccccc23)NC(=O)[C@H](Cc2ccc(NC(N)=O)cc2)NC(=O)[C@H](NC(=O)[C@H](Cc2ccc(Cl)cc2)NC(=O)CN2CCN(CC(=O)O)CCN(CC(=O)O)CCN(CC(=O)O)CC2)CSSC[C@@H](C(=O)N[C@@H](Cc2ccc3ccccc3c2)C(N)=O)NC1=O [Peptide No. 14, DOTA-Cpa-c[DCys-Aph(Cbm)-DTrp-Lys-Thr-Cys]-2Nal-NH2]",Calcium release tested in vitro in HEK-sst2 cells (function),sst2,Antagonist
same,IC50,"hSSTR5; Table 1, inhibition of radioligand binding to cloned human receptor, read-out: IC50 hSSTR5",> 1000 nM
same,IC50,hSSTR5; [1],> 1000 nM
same,IC50,"hSSTR4; Table 1, inhibition of radioligand binding to cloned human receptor, read-out: IC50 hSSTR4",816 ± 114 nM
same,IC50,hSSTR4; [2],831 ± 82 nM
same,IC50,"hSSTR2; Table 1, inhibition of radioligand binding to cloned human receptor, read-out: IC50 hSSTR2",9.4 ± 1.6 nM
same,IC50,hSSTR2; [3],9.8 ± 1.2 nM
same,IC50,"hSSTR3; Table 1, inhibition of radioligand binding to cloned human receptor, read-out: IC50 hSSTR3",> 1000 nM
same,IC50,hSSTR3; [4],972 ± 212 nM
same,IC50,"hSSTR1; Table 1, inhibition of radioligand binding to cloned human receptor, read-out: IC50 hSSTR1",> 1000 nM
same,IC50,hSSTR1; [5],> 1000 nM
same,sst2-internalization tested in vitro in HEK-sst2 cells (function),human sst2A receptor,Antagonist
"CC(=O)N[C@@H](Cc1ccc([N+](=O)[O-])cc1)C(=O)N[C@@H]1CSSC[C@@H](C(=O)N[C@H](Cc2ccc(O)cc2)C(N)=O)NC(=O)[C@H]([C@@H](C)O)NC(=O)[C@H](CCCCN)NC(=O)[C@@H](Cc2c[nH]c3ccccc23)NC(=O)[C@H](Cc2ccc(O)cc2)NC1=O [compound 1, Ac-pNO2Phe-c[DCys-Tyr-DTrp-Lys-Thr-Cys]-DTyr-NH2, reference compound]",IC50,hSSTR3; [4],> 1000 nM
same,sst2-internalization tested in vitro in HEK-sst2 cells (function),human sst2A receptor,Antagonist
"C[C@@H](O)[C@@H]1NC(=O)[C@H](CCCCN)NC(=O)[C@@H](Cc2ccc(NC(N)=O)cc2)NC(=O)[C@H](Cc2ccc(O)cc2)NC(=O)[C@H](NC(=O)[C@@H](N)Cc2ccc([N+](=O)[O-])cc2)CSSC[C@@H](C(=O)N[C@@H](Cc2ccc3ccccc3c2)C(N)=O)NC1=O [compound 4, H2N-pNO2Phe-c[DCys-Tyr-DAph(Cbm)-Lys-Thr-Cys]-2Nal-NH2] (H-[Phe(4-NO2)][dC]Y[dPhe(4-NHCONH2)]KTC[2Nal]-NH2; disulfide 2-7)",IC50,hSSTR5; [1],> 1000 nM
same,IC50,hSSTR4; [2],> 1000 nM
same,IC50,hSSTR2; [3],2.6 nM
same,IC50,hSSTR3; [4],384 nM
same,IC50,hSSTR1; [5],> 1000 nM
same,sst2-internalization tested in vitro in HEK-sst2 cells (function),human sst2A receptor,Antagonist
"C[C@@H](O)[C@@H]1NC(=O)[C@H](CCCCN)NC(=O)[C@@H](Cc2c[nH]c3ccccc23)NC(=O)[C@H](N(C)C(=O)c2ccccc2)NC(=O)[C@H](NC(=O)[C@@H](N)Cc2ccc(Cl)cc2)CSSC[C@@H](C(=O)N[C@@H](Cc2ccc3ccccc3c2)C(N)=O)NC1=O [compound 9, H2N-Cpa-c[DCys-L-Agl(NMe.benzoyl)-DTrp-Lys-Thr-Cys]-2Nal-NH2]",loss of binding affinity for sst2 as compared to 7,hSSTR2,3 fold
same,sst2-internalization tested in vitro in HEK-sst2 cells (function),human sst2A receptor,Antagonist
"C[C@@H](O)[C@@H]1NC(=O)[C@H](CCCCN)NC(=O)[C@@H](Cc2c[nH]c3ccccc23)NC(=O)[C@H](Cc2ccc(NC(N)=O)cc2)NC(=O)[C@H](NC(=O)[C@@H](N)Cc2ccc(Cl)cc2)CSSC[C@@H](C(=O)N[C@@H](Cc2ccc3ccccc3c2)C(N)=O)NC1=O [compound 12, H2N-Cpa-c[DCys-Aph(Cbm)-DTrp-Lys-Thr-Cys]-2Nal-NH2]",Calcium release tested in vitro in HEK-sst2 cells (function),sst2,Antagonist
same,sst2-internalization tested in vitro in HEK-sst2 cells (function),human sst2A receptor,Antagonist
"C[C@@H](O)[C@@H]1NC(=O)[C@H](CCCCN)NC(=O)[C@@H](Cc2c[nH]c3ccccc23)NC(=O)[C@H](Cc2ccc(NC(N)=O)cc2)NC(=O)[C@H](NC(=O)[C@H](Cc2ccc(Cl)cc2)NC(=O)CCOCCOCCOCCNC(=O)CN2CCN(CC(=O)O)CCN(CC(=O)O)CCN(CC(=O)O)CC2)CSSC[C@@H](C(=O)N[C@@H](Cc2ccc3ccccc3c2)C(N)=O)NC1=O [compound 16, DOTA-Peg-Cpa-c[DCys-Aph(Cbm)-DTrp-Lys-Thr-Cys]-2Nal-NH2]",sst2-internalization tested in vitro in HEK-sst2 cells (function),human sst2A receptor,Antagonist
"C[C@@H](O)[C@@H]1NC(=O)[C@H](CCCCN)NC(=O)[C@@H](Cc2ccc(NC(N)=O)cc2)NC(=O)C(Cc2ccc(NC(=O)C3CC(=O)NC(=O)N3)cc2)NC(=O)[C@H](NC(=O)[C@@H](N)Cc2ccc(Cl)cc2)CSSC[C@@H](C(=O)N[C@@H](Cc2ccc3ccccc3c2)C(N)=O)NC1=O (stereo partly drawn) [compound 29, H2N-Cpa-c[DCys-Aph(Hor)-DAph(Cbm)-Lys-Thr-Cys]-2Nal-NH2] (H-[Phe(4-Cl)][dC][ξPhe(4-NH2)](ξDihydroorotoyl)[dPhe(4-NHCONH2)]KTC[2Nal]-NH2; disulfide 2-7)",Calcium release tested in vitro in HEK-sst2 cells (function),sst2,Antagonist
same,sst2-internalization tested in vitro in HEK-sst2 cells (function),human sst2A receptor,Antagonist
[Tyr^3]-octreotide [reference compound],Calcium release tested in vitro in HEK-sst2 cells (function),sst2,agonistic effect
same,"sst2 internalization, given alone","human sst2A receptor; FIG. 2, antagonists at 10 μM",can induce sst2 internalization

# Reference: patent US8691761B2, “Somatostatin receptor 2 antagonists” (priority 2006, dated 2014)
